Test results published in patent publication US20160340324A1, “METHODS AND COMPOSITIONS FOR TREATING CANCER” (Sanford-Burnham Medical Research Institute, priority 2013, published 2016).

Key:
[1] = test system: A549 lung cancer, PC3 prostate cancer, ZR-75-1 and MB231 breast cancer cells; assay: MTT cell viability / growth inhibition assay; assay type: cell-based, human; settings: 48 h
Experimental: (§1) Cell viability was measured by the MTT colorimetric assay. FIG. 3B depicts inhibition of TNFα-induced AKT activation. […] Phosphorylated AKT and total AKT were analyzed by immunoblotting.
FIGS. 8A-C are a series of graphs depicting that sulindac and other compounds induce apoptosis of cancer cells. FIG. 8A is a PC3 prostate cancer cell line. FIG. 8B is a ZR-75-1 breast cancer cell line, and FIG. 8C is a MDA-MB-231 breast cancer cell line. Each were treated with the indicated concentration of Sulindac or other compounds for 48 h. Cell viability was determined by the MTT assay.
Confluent cells cultured in 96-well dishes were treated with various concentrations of compounds for 48 h. The cells were then incubated with 2 mg/mL (3-(4,5-Dimethylthiazol-2-yl)-2,5-diphenyltetrazolium bromide (MTT) for 4 h at 37° C. MTT solution was then aspirated and formazan in cells was instantly dissolved by addition of 150 μL DMSO each well. Absorbance was measured at 570 nm.

A549 cells = assay: PARP cleavage (apoptosis) with or without TNFα, immunoblotting; assay type: cell-based, human; settings: 4 h; for PARP cleavage, combination with TNFα: 40 μM compound plus TNFα 10 ng/mL
[2] = test system: TNFα-induced AKT activation in A549 lung cancer cells; assay: Inhibition of TNFα-induced AKT activation, immunoblotting; assay type: cell-based, human; settings: pretreated 1 h, TNFα 10 ng/mL 30 min
Experimental: as §1
ZR-75-1 and MB231 breast cancer cells (FIG. 8). A unique property of Sulindac and other compounds are their ability to inhibit TNFα-induced AKT activation (Zhou et al, 2010). […] Similar results were obtained in other cancer cell lines (FIG. 9).
Cells were lysed and equal amounts of the lysates were electrophoresed on 10% SDS-PAGE gels and transferred onto PVDF membranes (Millipore). The membranes were blocked with 5% skimmed milk in TBST [50 mM Tris-HCl (pH7.4), 150 mM NaCl and 0.1% Tween20] for 1 h, then incubated with primary antibodies and secondary antibodies and detected using ECL system (Thermo). The dilutions of the primary antibodies were anti-RXRα (AN 197, Santa Cruz) in 1:1000, anti-PARP(H-250. Santa Cruz) in 1:3000, anti-p85α (Millipore) in 1:1000, anti-p-AKT (D9E, Cell Signaling Technology) in 1:1000, anti-AKT 1/2/3 (H-136, Santa Cruz) in 1:1000, anti-β-actin (Sigma) in 1:5000, anti-c-myc (9E10, Santa Cruz), anti-Flag (FI 804, Sigma).

HepG2 tumor xenografts = HepG2 tumor xenografts in nude mice; assay type: in vivo; settings: for apparent toxic effects such as loss of body weight: 20 mg/kg daily for 12 days, body weight every 3 days; for reduction of tumor weight: 20 mg/kg intraperitoneally once a day, 12-day treatment
Experimental: FIGS. 4A-4F depict inhibition of HepG2 tumor growth in animals. FIG. 4A is a photograph of tumors. FIG. 4B is a graph of tumor volume. FIG. 4C is a graph of tumor weight. […] Tumors were removed and measured. Tumor sizes and weights in control, K-80003 and K-8008-treated mice were compared. FIG. 4D is a Western blot. Lysates prepared from three tumors treated with vehicle or K-8008 were analyzed by Western blotting assay for p-AKT expression. FIG. 4E is a series of photomicrographs. H&E staining and TUNEL assay. Tumor sections were stained for H&E or TUNEL by immunohistochemistry. […]. FIG. 4F is a graph of body weight. […]. Body weight was measured every three days. Each point represents the mean±standard deviation of six mice. The differences between the compound treated group and control group are not significant (P>5%).
[…]. Nude mice (BALB/c, SPF grade. 16-18 g, 4-5-week old) were housed at 28° C. in a laminar flow under sterilized conditions. Mice were injected subcutaneously with 100 μL HepG2 cells ([…]). […]. Body weight and tumor size were measured every 3 days. Mice were sacrificed after 12-day drug treatment and the tumors removed for various assessments.
Paraffin wax embedded tumors were cut into 5 |iM-thick sections. These sections were deparaffinized and stained with hematoxylin and eosin (H&E) according to the standard protocol. Tumor sections of HepG2 xenografts were also stained with TUNEL for assessing spontaneous apoptosis according to the manufacturer's instructions (In situ Cell Death Detection Kit; Roche). The images were taken under a fluorescent microscope (Carl Zeiss).

cancer cells = settings: literature (Weggen 2001; Yamamoto 1999; Zhang 2000); cited from earlier work
RXRα = biological target: T1, RXRα (Homo sapiens, UniProt P19793); assay: CAT reporter assay with (TREpal)2-tk-CAT and RXRα transfected into CV-1 cells; assay type: cell-based; settings: 9-cis-RA 10^-7 M, BI-1003 1 μM
T1 construct: expressed in transfected cells; host or cells: CV-1 African green monkey kidney cells
T1 sequence (P19793 1-462): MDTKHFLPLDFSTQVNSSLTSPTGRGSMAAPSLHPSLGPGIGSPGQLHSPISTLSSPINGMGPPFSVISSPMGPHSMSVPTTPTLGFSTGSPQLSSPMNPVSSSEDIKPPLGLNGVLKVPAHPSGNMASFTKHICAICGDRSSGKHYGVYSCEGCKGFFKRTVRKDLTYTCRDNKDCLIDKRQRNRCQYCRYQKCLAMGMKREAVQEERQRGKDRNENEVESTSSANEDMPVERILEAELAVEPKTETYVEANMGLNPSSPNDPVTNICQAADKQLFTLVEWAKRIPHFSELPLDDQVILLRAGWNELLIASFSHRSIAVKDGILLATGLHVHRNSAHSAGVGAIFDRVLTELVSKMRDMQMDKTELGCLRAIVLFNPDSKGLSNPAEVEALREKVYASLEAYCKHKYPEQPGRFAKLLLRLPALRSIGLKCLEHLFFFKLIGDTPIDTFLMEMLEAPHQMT
Experimental: FIGS. 2A and 2B are graphs of relative CAT activity. (TREpal)2-tk-CAT and RXRα were transiently transfected into CV-1 cells. […] CAT activity was determined. […] Error bars represent SEM. FIG. 2C is a graph of relative LUC activity. pBind-RXRα-LBD and pG5luc were transiently transfected into HCT-116 cells. […] Luciferase activity was determined.

RXRα-LBD = biological target: T2, RXRα-LBD (Homo sapiens, UniProt P19793); assay: Mammalian one hybrid: Gal4-RXRα-LBD chimera (pBind-RXRα-LBD) and pG5luc reporter in HCT-116 cells; assay type: cell-based; settings: 9-cis-RA 10^-7 M, BI-1003 1 μM, K-8008 and K-8012 50 μM
T2 construct: expressed in transfected cells; host or cells: HCT-116
T2 sequence (P19793 227-458 limits assumed): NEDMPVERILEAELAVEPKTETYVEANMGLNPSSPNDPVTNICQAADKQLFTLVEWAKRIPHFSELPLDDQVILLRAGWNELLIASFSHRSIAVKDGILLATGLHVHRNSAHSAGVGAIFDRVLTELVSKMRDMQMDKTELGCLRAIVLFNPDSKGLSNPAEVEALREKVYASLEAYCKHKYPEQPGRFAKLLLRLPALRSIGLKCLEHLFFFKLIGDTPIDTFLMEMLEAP
Experimental: FIGS. 2A and 2B are graphs of relative CAT activity. (TREpal)2-tk-CAT and RXRα were transiently transfected into CV-1 cells. […] CAT activity was determined. […] Error bars represent SEM. FIG. 2C is a graph of relative LUC activity. pBind-RXRα-LBD and pG5luc were transiently transfected into HCT-116 cells. […] Luciferase activity was determined. […] HCT-116 cells seeded in 24-well plates were transiently transfected with 50 ng pG5luc, 25 ng pBind-RXRα-LBD. […] Cells were washed, lysed and assayed by using the Dual-Luciferase Reporter Assay System (Promega). Transfection efficiency was normalized to Renilla luciferase activity.

human RXRα-LBD = biological target: T3, human RXRα-LBD (Homo sapiens, UniProt P19793); assay: Ligand-binding competition assay with [3H]9-cis-RA; settings: [3H]-9-cis-RA 7.5 nM
T3 sequence (P19793 223-462): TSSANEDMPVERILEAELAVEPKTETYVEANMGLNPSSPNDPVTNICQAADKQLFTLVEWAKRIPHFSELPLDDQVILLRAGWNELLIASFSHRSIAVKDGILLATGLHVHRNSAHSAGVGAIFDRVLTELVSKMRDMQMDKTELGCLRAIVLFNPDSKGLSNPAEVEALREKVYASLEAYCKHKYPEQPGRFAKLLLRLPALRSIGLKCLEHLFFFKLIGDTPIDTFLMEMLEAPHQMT

| Structure (SMILES) | inhibition of growth of cancer cells compared to Sulindac [1] | PARP cleavage, combination with TNFα (A549 cells) | TNFα-induced AKT activation [2] | apparent toxic effects such as loss of body weight (HepG2 tumor xenografts) | reduction of tumor weight (HepG2 tumor xenografts) [%] | further results |
| --- | --- | --- | --- | --- | --- | --- |
| CC1=C(CCc2nnn[nH]2)c2cc(F)ccc2/C1=C\c1ccc(C(C)C)cc1 [Compound K-8012, (Z)-5-(2-(5-Fluoro-1-(4-isopropylbenzylidene)-2-methyl-1H-inden-3-yl)ethyl)-1H-tetrazole] | much more effective | could convert TNFα signaling from survival to death | suppressed in a dose dependent manner |  |  |  |
| CC1=C(CCc2nnn[nH]2)c2ccccc2/C1=C\c1ccc(C(C)C)cc1 [Compound K-8008, (Z)-5-(2-(1-(4-iso-Propylbenzylidene)-2-methyl-1H-inden-3-yl)ethyl)-1H-tetrazole] | much more effective | could convert TNFα signaling from survival to death | suppressed in a dose dependent manner | did not show any apparent toxic effects | 61.23 | apoptosis in tumor sections, TUNEL staining (HepG2 tumor xenografts; 20 mg/kg): induction of apoptosis; growth of HepG2 tumor (HepG2 tumor xenografts; 20 mg/kg intraperitoneally daily): inhibited the growth of HepG2 tumor in a time dependent manner; AKT activation (p-AKT) in tumors, Western blotting (HepG2 tumor xenografts; three tumors, 20 mg/kg): reduction of AKT activation |
| CC1=C(CC(=O)O)c2cc(F)ccc2/C1=C\c1ccc([S+](C)[O-])cc1 (stereo not shown) [Sulindac, reference compound] |  | significant induction of PARP cleavage |  |  |  | concentration normally used to achieve anti-cancer effects (cancer cells): About 100 μM; PARP cleavage, compound alone (A549 cells; 40 μM, 1% FBS): slightly induced PARP cleavage |
| CCCOc1cc2c(cc1C(=C1CC1)c1ccc(C(=O)O)cc1)C(C)(C)CCC2(C)C [BI-1003] |  |  |  |  |  | inhibition of 9-cis-RA-induced TREpal reporter activity (RXRα): inhibited; inhibition of 9-cis-RA-induced Ga14 reporter activation (RXRα-LBD): inhibited |
| CC1=C(CC(=O)O)c2cc(F)ccc2/C1=C\c1ccc(C(C)C)cc1 [Compound K-80003, reference compound] |  |  |  | did not show any apparent toxic effects | 54.84 | competition with [3H]9-cis-RA for binding to the LBP of RXRα (human RXRα-LBD): competed well |
